≈ marks a conversion by molar mass, not a printed value. Read-outs that look alike come from different tables or passages of the source.
Legend:
Plasmodium falciparum = test: In vitro anti-malarial activity against Plasmodium falciparum, IC50 assay / [3H]-hypoxanthine incorporation assay; type: cell-based; details: Erythrocyte, parasitized red blood cells, 48 hours
Protocol: In Vitro Anti-malarial Activity Against Plasmodium falciparum
IC50 Assay/[^3H]-Hypoxanthine Assay
Plasmodium falciparum strains.
The culture medium comprised RPMI 1640 with 25 mM HEPES, sodium bicarbonate and glutamine (GIBCO™ cat. ref.: 52400), supplemented with 10% of pooled human sera AB (Irvine Scientific, cat. ref.: 5009) and HT supplement (0.15 mM hypoxanthine and 24 μM thymidine), (GIBCO™ cat. ref.: 41065). Human sera were decomplemented 30 min. at 56° C., aliquoted and stored frozen at −20° C. until use in this culture medium.
Red blood cells O+ stock suspensions were prepared from whole blood bags coming from incomplete blood donation, provided by the Spanish Red Cross (<25 days after sampling). This “whole blood” was aliquoted and stored at 4° C.
To prepare red blood cells for the assay, the whole blood was centrifuged and washed 3 times with RPMI without serum. The upper phase, containing white blood cells was removed. The washed red blood cells were kept as a 50% suspension in complete medium. The prepared cells were stored at 4° C. and were employed in the assay at any time up to 4 days after preparation.
Test compounds were dissolved at 2 mg/ml in 100% DMSO on the day of the assay. If necessary, complete dissolution was achieved by gentle heating (the mixture was heated at a temperature <37° C.) and sonication (sonication bath).
For IC50 determinations, 10 serial 2-fold dilutions were prepared in complete medium in the presence of a constant amount of DMSO.
Plasmodium falciparum strains were maintained in complete medium at an hematocrit of 5% in continuous culture using a method adapted from Trager and Jensen (1, 2).
The parasitemia was calculated by counting the percentage of parasitized erythrocytes by optical microscopy. Thin films of blood were made every day from each culture flask, fixed with methanol and stained for 10 min. in Giemsa (Merck, cat ref.: 1.09204) at 10% in buffered water pH 7.2. The glass slides were observed and counted with an optical microscope (Nikon, Eclipse E200) equipped with a 100× immersion oil objective.
The culture was maintained at an hematocrit of 5%, with a daily change of medium and was diluted when parasitemia had reached about 5%.
[^3H] Hypoxanthine incorporation assay was conducted using a method adapted from Desjardins et al. (3). The assays were performed in 96 wells flat bottom microplates.
1. Serial dilutions of the test compounds (50 μl of a 5× solution/well) were deposited in duplicate. Compounds of the invention were tested in this assay. Chloroquine and Atovaquone were used as control compounds for each assay.
3. [^3H]-Hypoxanthine (Amersham Biosciences, cat. ref.: TRK74) was added extemporaneously to the inoculum suspension at a concentration of 1 μCi/ml (equating to […]). 200 μl of the resulting suspension was distributed into each well (other than the control well H12 described below) leading to a final volume of 250 μl per well, at 2% of hematocrit and 0.5% of parasitemia/well.
4. In each plate, 2 columns were reserved for control wells: • Column 11: Positive control wells: PRBCs with 0.2% DMSO—(i) to determine DMSO solvent effect on parasite growth (at a final concentration of 0.2%) and (ii) to compare with cultures treated with test compounds. • Column 12 (comprising wells A12-H12): • A12-D12—Background value wells: Uninfected RBCs—blank control to obtain the background reading from RBCs without parasites. • E12-G12—Solvent effect wells: PRBCs without DMSO—to determine DMSO solvent effect on PRBCs by comparing these wells with column 11 wells. • H12-Non-radioactive well: PRBCs with cold hypoxanthine—(i) to carry out a thin blood film to determine parasitemia value after incubation by microscopy and (ii) to ensure that the parasites have grown properly during the assay. (200 μl of inoculum suspension was prepared as described above (Items 2 and 3) but with non-tritiated hypoxanthine instead of [3H]-hypoxanthine, then added to this well to a final volume of 250 μl). […]

[1] = Compound solubility determination (gross and equilibrium solubility; FaSSIF, FeSSIF, pH 7.4 PBS, pH 1.0 0.1N HCl, pH 4.5 sodium citrate); type: physicochemical; details: thermodynamic from solid
Protocol: Compound Solubility Determination
An amount of 3 mg solid compound with LC-MS purity ≧95% was required. This amount was split between 3 different glass vials (1.8 ml volume each), placing 1 mg compound into each one.
Organic solvents of HPLC grade were used. Ultra pure water (Milli-Q grade) was used. Buffers were prepared with ultra pure water and filtered using 0.45μ cameo filters. The compositions of each solvent employed in this assay are described below (part III).
2. Determination of Equilibrium Solubility (Assuming Chemical Stability in the Desired Solvent is not a Problem).
For each of the three vial samples prepared as described above, in which the amount of compound was totally dissolved, the following procedure was subsequently carried out: • a) A small amount (approx. 0.1 mg) of additional solid compound was added to the vial to maintain an excess of the compound in the mixture in the form of undissolved solid. • b) The samples were magnetically stirred for 24 hr. If required, additional solid compound (0.1 mg) was added to maintain excess of it and then the samples were stirred again. • c) Then the samples were filtered (Millipore Milex filters nylon 0.2 um) and three aliquots were taken (one from each of the three vials) and analysed by LC-MS. • d) The pH of the final solution in each sample was measured with a pH-meter (WTW pH330i and a pH-electrode Sentix 41).
3. LC-MS Assay for Analytical Quantification
All filtered aliquots were analysed by LC-MS. The analysis was carried out with a Luna 5 μC18 (2) column 4.6×150 mm, using a HP1100 HPLC instrument interfaced with a Waters ZMD-2000 MS spectrometer. The concentration of the final sample as prepared above was calculated from that of a reference calibration curve obtained from serial dilutions of a 2 mM solution of the compound under investigation in DMSO (Aldrich cat. ref.: 27685-5) stock solution.
The analysis of all LC-MS data was performed with MassLynx 3.4 software. Statistical and graphic analysis of data was performed using Microsoft Excel. The concentration (uM) and solubility (ug/ml) for each compound was calculated using the peak areas from the sample and those from the calibration curve.
A) FaSSIF is a solvent which simulates the Fasted State of the Intestinal Fluid. (FaSSIF: Fasted State Simulated Intestinal Fluid).
B) FeSSIF is a solvent which simulates the Fed State of the Intestinal Fluid. (FeSSIF: Fed State Simulated Intestinal Fluid).
C) Solubility at pH 7.4 was determined in phosphate buffered saline (PBS) (Fluka cat. ref: 79383)
D) Solubility at pH 1.0 was determined in 0.1N HCl solution (Scharlau AL0744010C)
E) Solubility at pH 4.5 was determined in sodium citrate 0.5M solution. (Aldrich 25, 127-5)

[2] = 0.1N HCl solution, simulated gastric fluid, pH 1 (HCl), read-out: Solubility at pH 1 (HCl)
[3] = FaSSIF (fasted state simulated intestinal fluid), fassif, read-out: Solubility in FaSSIF
[4] = FeSSIF (fed state simulated intestinal fluid), fessif, read-out: Solubility in FeSSIF
[5] = phosphate buffered saline (PBS), aqueous buffer, pH 7.4 (PBS), read-out: Solubility at pH 7.4 (PBS)
[6] = sodium citrate 0.5M solution, aqueous buffer, pH 4.5 (Na citrate), read-out: Solubility at pH 4.5 (Na citrate)

IC50 (Plasmodium falciparum) [µg/mL]	SMILES	other results
0.5 (≈ 1.79 µM)	Cc1[nH]c(C)c(-c2ccccn2)c(=O)c1Br [Compound W, 5′-Bromo-2′,6′-dimethyl-2,3′-bipyridin-4′-(1′H)-one, reference compound]	
< 0.125	Cc1[nH]c(C)c(-c2ccc(Oc3ccc(OC(F)(F)F)cc3)cc2)c(=O)c1Cl [Compound Y, 3-chloro-5-(4-(4-trifluoromethoxyphenoxy)phenyl)-2,6-dimethylpyridin-4(1H)-one, reference compound]	
< 0.125	Cc1[nH]c(C)c(-c2ccc(OCc3ccc(OC(F)(F)F)cc3)nc2)c(=O)c1Br [Example 1, 5-Bromo-2,6-dimethyl-6′-{[4-(trifluoromethoxy)benzyl]oxy}-3,3′-bipyridin-4(1H)-one]	
< 0.125	Cc1[nH]c(C)c(-c2ccc(OCc3cccc(C(F)(F)F)c3)nc2)c(=O)c1Br [Example 2, 5-Bromo-2,6-dimethyl-6′-{[3-(trifluoromethyl)benzyl]oxy}-3,3′-bipyridin-4(1H)-one]	
< 0.125	Cc1[nH]c(C)c(-c2ccc(OCc3ccc(C(F)(F)F)cc3)nc2)c(=O)c1Br [Example 3, 5-Bromo-2,6-dimethyl-6′-{[4-(trifluoromethyl)benzyl]oxy}-3,3′-bipyridin-4(1H)-one]	
< 0.125	Cc1[nH]c(C)c(-c2ccc(OCc3ccccc3C(F)(F)F)nc2)c(=O)c1Br [Example 4, 5-Bromo-2,6-dimethyl-6′-{[2-(trifluoromethyl)benzyl]oxy}-3,3′-bipyridin-4(1H)-one]	
< 0.125	Cc1[nH]c(C)c(-c2ccc(OCc3cc(C(F)(F)F)cc(C(F)(F)F)c3)nc2)c(=O)c1Br [Example 5, 5-Bromo-2,6-dimethyl-6′-{[3,5-bis(trifluoromethyl)benzyl]oxy}-3,3′-bipyridin-4(1H)-one]	
< 0.125	Cc1[nH]c(C)c(-c2ccc(OCc3ccc(F)cc3)nc2)c(=O)c1Br [Example 6, 5-Bromo-6′-{[4-fluorobenzyl]oxy}-2,6-dimethyl-3,3′-bipyridin-4(1H)-one]	
< 0.125	Cc1[nH]c(C)c(-c2ccc(OCc3cc(F)cc(F)c3)nc2)c(=O)c1Br [Example 7, 5-Bromo-6′-{[3,5-difluorobenzyl]oxy}-2,6-dimethyl-3,3′-bipyridin-4(1H)-one]	
< 0.125	Cc1[nH]c(C)c(-c2ccc(OCc3ccc(OC(F)(F)F)cc3)nc2)c(=O)c1Cl [Example 8, 5-Chloro-2,6-dimethyl-6′-{[4-(trifluoromethoxy)benzyl]oxy}-3,3′-bipyridin-4(1H)-one]	
< 0.125	Cc1[nH]c(C)c(-c2ccc(OCc3cccc(C(F)(F)F)c3)nc2)c(=O)c1Cl [Example 9, 5-Chloro-2,6-dimethyl-6′-{[3-(trifluoromethyl)benzyl]oxy}-3,3′-bipyridin-4(1H)-one]	
< 0.125	Cc1[nH]c(C)c(-c2ccc(OCc3ccccc3C(F)(F)F)nc2)c(=O)c1Cl [Example 11, 5-Chloro-2,6-dimethyl-6′-{[2-(trifluoromethyl)benzyl]oxy}-3,3′-bipyridin-4(1H)-one]	
< 0.125	Cc1[nH]c(C)c(-c2ccc(OCc3cc(C(F)(F)F)cc(C(F)(F)F)c3)nc2)c(=O)c1Cl [Example 12, 5-Chloro-2,6-dimethyl-6′-{[3,5-bis(trifluoromethyl)benzyl]oxy}-3,3′-bipyridin-4(1H)-one]	
< 0.125	Cc1[nH]c(C)c(-c2ccc(OCc3ccc(F)cc3)nc2)c(=O)c1Cl [Example 13, 5-Chloro-6′-{[4-fluorobenzyl]oxy}-2,6-dimethyl-3,3′-bipyridin-4(1H)-one]	
< 0.125	Cc1[nH]c(C)c(-c2ccc(OCc3cc(F)cc(F)c3)nc2)c(=O)c1Cl [Example 14, 5-Chloro-6′-{[3,5-difluorobenzyl]oxy}-2,6-dimethyl-3,3′-bipyridin-4(1H)-one]	
< 0.125	Cc1[nH]c(C)c(-c2ccc(-c3ccc(OC(F)(F)F)cc3)nc2)c(=O)c1Br [Example 15, 5-Bromo-2,6-dimethyl-6′-{4-[(trifluoromethyl)oxy]phenyl}-3,3′-bipyridin-4(1H)-one]	
	Cc1nc(C)c(-c2ccc(-c3ccc(Cl)cc3)cc2)c(O)c1Br [comparator X]	solubility at 24 h [1, 2]: < 1 µg/mL; solubility at 24 h [1, 3]: 5 to 10 µg/mL (≈ 12.9 to 25.7 µM); solubility at 24 h [1, 4]: 5 to 10 µg/mL (≈ 12.9 to 25.7 µM); solubility at 24 h [1, 5]: < 1 µg/mL; solubility at 24 h [1, 6]: < 1 µg/mL
	Cc1[nH]c(C)c(-c2ccc(Oc3ccc(OC(F)(F)F)cc3)cc2)c(=O)c1Cl [comparator Y]	solubility at 24 h [1, 2]: < 1 µg/mL; solubility at 24 h [1, 3]: < 1 µg/mL; solubility at 24 h [1, 4]: 1 to 5 µg/mL (≈ 2.44 to 12.2 µM); solubility at 24 h [1, 5]: < 1 µg/mL; solubility at 24 h [1, 6]: < 1 µg/mL
	Cc1[nH]c(C)c(-c2ccc(Oc3cccc(C(F)(F)F)c3)cc2)c(=O)c1Cl [comparator Z]	solubility at 24 h ([1]; aqueous buffer, pH 4.5 (Na citrate), read-out: Solubility at pH 4.5 (Na citrate)): < 1 µg/mL; solubility at 24 h ([1]; aqueous buffer, pH 7.4 (PBS), read-out: Solubility at pH 7.4 (PBS)): < 1 µg/mL; solubility at 24 h ([1]; fassif, read-out: Solubility in FaSSIF): < 1 µg/mL; solubility at 24 h ([1]; fessif, read-out: Solubility in FeSSIF): 1 to 5 µg/mL (≈ 2.54 to 12.7 µM); solubility at 24 h ([1]; simulated gastric fluid, pH 1 (HCl), read-out: Solubility at pH 1 (HCl)): < 1 µg/mL

SMILES	IC50 (Plasmodium falciparum) [µg/mL]	other results
Cc1[nH]c(C)c(-c2ccc(Oc3cccc(C(F)(F)F)c3)cc2)c(=O)c1Cl [Compound Z, 3-Chloro-2,6-dimethyl-5-(4-{[3-(trifluoromethyl)phenyl]oxy}phenyl)-4(1H)pyridinone, reference compound]	< 0.125	

Reference: US7579353B2, “Pyridinone derivatives against malaria” (Glaxo Group Limited, priority 2005, dated 2009)
